SMILES strings stand for the structures. Calls of active or inactive are those of the source. The rule behind the calls is not given here.

In this data set the test system is CCRIS mutagenicity, Ames/micronucleus/aberration tests. In words: CCRIS mutagenicity studies.
[1] abbreviates: Test System: AMES SALMONELLA TYPHIMURIUM, Strain/Indicator: TA98, Metabolic Activation: NONE, Method: PREINCUBATION
The mark [2] stands for this setting: Test System: AMES SALMONELLA TYPHIMURIUM, Strain/Indicator: TA98, Metabolic Activation: NONE, Method: STANDARD PLATE.
Setting [3] is: Test System: AMES SALMONELLA TYPHIMURIUM, Strain/Indicator: TA98, Metabolic Activation: RAT, LIVER, S-9, AROCLOR 1254, Method: STANDARD PLATE.
Where [4] appears, read: Test System: AMES SALMONELLA TYPHIMURIUM, Strain/Indicator: TA100, Metabolic Activation: NONE, Method: STANDARD PLATE.
Setting [5] is: Test System: AMES SALMONELLA TYPHIMURIUM, Strain/Indicator: TA100, Metabolic Activation: RAT, LIVER, S-9, AROCLOR 1254, Method: STANDARD PLATE.
Where [6] appears, read: Test System: AMES SALMONELLA TYPHIMURIUM, Strain/Indicator: TA100, Metabolic Activation: NONE, Method: PREINCUBATION

On to `CN1CCCC1=O`, for which the mutagenic call runs as follows: (Test System: AMES SALMONELLA TYPHIMURIUM, Strain/Indicator: TA97, Metabolic Activation: NONE, Method: STANDARD PLATE) “inactive; negative”; (Test System: AMES SALMONELLA TYPHIMURIUM, Strain/Indicator: TA97, Metabolic Activation: RAT, LIVER, S-9, AROCLOR 1254, Method: STANDARD PLATE) “inactive; negative”; under setting [1], “inactive; negative”; under setting [2], “inactive; negative”; (Test System: AMES SALMONELLA TYPHIMURIUM, Strain/Indicator: TA98, Metabolic Activation: RAT, LIVER, S-9, AROCLOR 1254, Method: PREINCUBATION) “inactive; negative”; under setting [3], “inactive; negative”. Also, the mutagenic call under setting [4] is “inactive; negative”; the mutagenic call under setting [5] was “inactive; negative”; the mutagenic call (Test System: AMES SALMONELLA TYPHIMURIUM, Strain/Indicator: TA102, Metabolic Activation: NONE, Method: STANDARD PLATE) is “inactive; negative”; the mutagenic call (Test System: AMES SALMONELLA TYPHIMURIUM, Strain/Indicator: TA102, Metabolic Activation: RAT, LIVER, S-9, AROCLOR 1254, Method: STANDARD PLATE) was “inactive; negative”; the mutagenic call (Test System: AMES SALMONELLA TYPHIMURIUM, Strain/Indicator: TA104, Metabolic Activation: NONE, Method: PREINCUBATION) is “inactive; negative”; the mutagenic call (Test System: AMES SALMONELLA TYPHIMURIUM, Strain/Indicator: TA104, Metabolic Activation: NONE, Method: STANDARD PLATE) was “inactive; negative”. The mutagenic call by setting is: (Test System: AMES SALMONELLA TYPHIMURIUM, Strain/Indicator: TA104, Metabolic Activation: RAT, LIVER, S-9, AROCLOR 1254, Method: PREINCUBATION) “inactive; negative”; (Test System: AMES SALMONELLA TYPHIMURIUM, Strain/Indicator: TA104, Metabolic Activation: RAT, LIVER, S-9, AROCLOR 1254, Method: STANDARD PLATE) “inactive; negative”; (Test System: AMES SALMONELLA TYPHIMURIUM, Strain/Indicator: TA2638, Metabolic Activation: NONE, Method: STANDARD PLATE) “inactive; negative”; (Test System: AMES SALMONELLA TYPHIMURIUM, Strain/Indicator: TA2638, Metabolic Activation: RAT, LIVER, S-9, AROCLOR 1254, Method: STANDARD PLATE) “inactive; negative”; (Test System: AMES SALMONELLA TYPHIMURIUM, Strain/Indicator: UTH8413, Metabolic Activation: NONE, Method: STANDARD PLATE) “inactive; negative”; (Test System: AMES SALMONELLA TYPHIMURIUM, Strain/Indicator: UTH8413, Metabolic Activation: RAT, LIVER, S-9, AROCLOR 1254, Method: STANDARD PLATE) “inactive; negative”. In addition, the mutagenic call was “inactive; negative” (Test System: AMES SALMONELLA TYPHIMURIUM, Strain/Indicator: UTH8414, Metabolic Activation: NONE, Method: STANDARD PLATE) and “inactive; negative” (Test System: AMES SALMONELLA TYPHIMURIUM, Strain/Indicator: UTH8414, Metabolic Activation: RAT, LIVER, S-9, AROCLOR 1254, Method: STANDARD PLATE).

In the case of `C=C[C@H]1CN2CC[C@H]1C[C@H]2[C@H](OC(=O)OCC)c1ccnc2ccc(OC)cc12`, the mutagenic call is “inactive; negative” under setting [1]; “inactive; negative” (Test System: AMES SALMONELLA TYPHIMURIUM, Strain/Indicator: TA98, Metabolic Activation: RAT, LIVER, S-9, Method: PREINCUBATION); “inactive; negative” under setting [6]; “inactive; negative” (Test System: AMES SALMONELLA TYPHIMURIUM, Strain/Indicator: TA100, Metabolic Activation: RAT, LIVER, S-9, Method: PREINCUBATION).

Turning to `O=C(CCl)CCl`, the mutagenic call under setting [2] is “inactive; negative”; the mutagenic call (Test System: AMES SALMONELLA TYPHIMURIUM, Strain/Indicator: TA100, Metabolic Activation: NONE, Method: FLUCTUATION TEST) was “active; positive”; the mutagenic call under setting [4] was “active; positive”; the mutagenic call (Test System: AMES SALMONELLA TYPHIMURIUM, Strain/Indicator: TA100, Metabolic Activation: RAT, LIVER, S-9, AROCLOR 1254, Method: FLUCTUATION TEST) was “inactive; negative”; the mutagenic call under setting [5] was “active; positive”; the mutagenic call (Test System: AMES SALMONELLA TYPHIMURIUM, Strain/Indicator: TA1535, Metabolic Activation: NONE, Method: STANDARD PLATE) was “active; positive”. Also, under “Test System: AMES SALMONELLA TYPHIMURIUM, Strain/Indicator: TA1535, Metabolic Activation: RAT, LIVER, S-9, AROCLOR 1254, Method: STANDARD PLATE”, the mutagenic call was “active; positive”.

In the case of `COP(=S)(OC)Oc1ccc(N=O)c(C)c1`, the mutagenic call under setting [2] is “active; positive”, the mutagenic call under setting [3] was “active; positive”, the mutagenic call under setting [4] was “active; positive” and the mutagenic call under setting [5] is “active; positive”.

`Cc1cc(O)c2c(c1)C(=O)c1c(O)c(O)cc(O)c1C2=O`: the mutagenic call (Test System: AMES SALMONELLA TYPHIMURIUM, Strain/Indicator: TA1537, Metabolic Activation: NONE, Method: STANDARD PLATE) was “inactive; negative” and the mutagenic call (Test System: AMES SALMONELLA TYPHIMURIUM, Strain/Indicator: TA1537, Metabolic Activation: RAT, LIVER, S-9, PCB, Method: STANDARD PLATE) was “active; positive”.

As for `C[C@]12CC[C@H](O)CC1=CC[C@@H]1[C@@H]2CC[C@]2(C)C(=O)CC[C@@H]12`, the mutagenic call is, setting by setting: (Test System: AMES SALMONELLA TYPHIMURIUM, Strain/Indicator: TA102, Metabolic Activation: RAT LIVER S-9, PHENOBARBITAL AND 5,6-BENZOFLAVONE, Method: STANDARD PLATE) “inactive; negative”; (Test System: AMES SALMONELLA TYPHIMURIUM, Strain/Indicator: TA2638, Metabolic Activation: RAT LIVER S-9, PHENOBARBITAL AND 5,6-BENZOFLAVONE, Method: STANDARD PLATE) “inactive; negative”; (Test System: E. COLI, Strain/Indicator: WP2 (PKM101), Metabolic Activation: RAT LIVER S-9, PHENOBARBITAL AND 5,6-BENZOFLAVONE, Method: STANDARD PLATE) “inactive; negative”; (Test System: E. COLI, Strain/Indicator: WP2 UVRA (PKM101), Metabolic Activation: RAT LIVER S-9, PHENOBARBITAL AND 5,6-BENZOFLAVONE, Method: STANDARD PLATE) “inactive; negative”; (Test System: UDS RAT HEPATOCYTES, Strain/Indicator: THY INCORP (18-20 HR), Metabolic Activation: NONE, Method: LIQUID SCINTILLATION COUNTING) “inactive; negative”.

Take `COc1c(N2C[C@@H]3CCCN[C@@H]3C2)c(F)cc2c(=O)c(C(=O)O)cn(C3CC3)c12`: the mutagenic call (Test System: CHINESE HAMSTER V-79, Strain/Indicator: V-79 (HGPRT)/6-THIOGUANINE, Metabolic Activation: NONE, Method: STANDARD PLATE) was “inactive; negative”.

For `O=[N+]([O-])c1ccc(Cl)cc1Cl`, the mutagenic call runs as follows: (End Point: IN VITRO CHROMOSOMAL ABERRATIONS, Test System: CHL CELLS, Metabolic Activation: RAT, LIVER, S-9, SODIUM PHENOBARBITAL AND 5,6-BENZOFLAVONE) “active; positive (structural changes); authors report equivocal results for ploidy chang”; under setting [1], “inactive; negative”; (Test System: AMES SALMONELLA TYPHIMURIUM, Strain/Indicator: TA98, Metabolic Activation: RAT, LIVER, S-9, KANECHLOR 500, Method: PREINCUBATION) “inactive; negative”; under setting [6], “active; positive”; under setting [4], “inactive; negative”; (Test System: AMES SALMONELLA TYPHIMURIUM, Strain/Indicator: TA100, Metabolic Activation: RAT LIVER S-9, PHENOBARBITAL AND BETA-NAPHTHOFLAVONE, Method: PREINCUBATION) “active; positive”. Also, the mutagenic call is, setting by setting: (Test System: AMES SALMONELLA TYPHIMURIUM, Strain/Indicator: TA100, Metabolic Activation: RAT, LIVER, S-9, KANECHLOR 500, Method: PREINCUBATION) “active; positive”; (Test System: AMES SALMONELLA TYPHIMURIUM, Strain/Indicator: TA1535, Metabolic Activation: RAT LIVER S-9, PHENOBARBITAL AND BETA-NAPHTHOFLAVONE, Method: PREINCUBATION) “inactive; negative”; (Test System: AMES SALMONELLA TYPHIMURIUM, Strain/Indicator: TA1537, Metabolic Activation: RAT LIVER S-9, PHENOBARBITAL AND BETA-NAPHTHOFLAVONE, Method: PREINCUBATION) “inactive; negative”; (Test System: E.COLI, Strain/Indicator: WP2UVRA, Metabolic Activation: NONE, Method: PREINCUBATION) “inactive; negative”; (Test System: E.COLI, Strain/Indicator: WP2UVRA, Metabolic Activation: RAT LIVER S-9, PHENOBARBITAL AND BETA-NAPHTHOFLAVONE, Method: PREINCUBATION) “inactive; negative”.
